Measured values from the supplement of paper PMC10307832.

What was measured:
Experiment in all cases: relative viability (nuclei count vs DMSO), 5 days (fraction); higher = more cells survive
[1] = compound: C(C(=O)C(=O)O)Br [Bromopyruvate] + Cc1nc(NC(=O)N2CCC[C@H]2C(N)=O)sc1-c1ccnc(C(C)(C)C(F)(F)F)c1 [Alpelisib] (partner 2 µM)
Procedure, shortened: (§1)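 Lung cancer cell lines were seeded in 1536-well plates and dosed by pin tool the next day, with either a single drug or a fixed anchor-drug dose combined with five library-drug doses (not always all listed) spaced in √10 steps. Five days later, one step fixed the cells and stained their nuclei (final 0.05% Triton X-100, 1% formaldehyde, 1 ug/ml Hoechst), and nuclei were counted on 4× images. Relative viability is the nuclei count in treated wells divided by the count in vehicle wells, and each value is the median of duplicate plates.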

[2] = compound: CC(O)(CS(=O)(=O)c1ccc(F)cc1)C(=O)Nc1ccc(C#N)c(C(F)(F)F)c1 [Bicalutamide] + CC(=O)c1c(C)c2cnc(Nc3ccc(N4CCNCC4)cn3)nc2n(C2CCCC2)c1=O [Palbociclib] (partner 0.5 µM)
Procedure, shortened: as §1

[3] = compound: CC(O)(CS(=O)(=O)c1ccc(F)cc1)C(=O)Nc1ccc(C#N)c(C(F)(F)F)c1 [Bicalutamide] + CC(C)C[C@H](NC(=O)[C@H](Cc1ccccc1)NC(=O)c1cnccn1)B(O)O [Bortezomib] (partner 0.002 µM)
Procedure, shortened: as §1

Bicalutamide + AZD7762 = compound: CC(O)(CS(=O)(=O)c1ccc(F)cc1)C(=O)Nc1ccc(C#N)c(C(F)(F)F)c1 [Bicalutamide] + NC(=O)Nc1cc(-c2cccc(F)c2)sc1C(=O)N[C@H]1CCCNC1 [AZD7762] (partner 0.2 µM)
Procedure, shortened: as §1

Row | Cell Line | relative viability ([1]; first compound 1 µM) | relative viability ([1]; first compound 3.162 µM) | relative viability ([1]; first compound 31.62 µM) | relative viability ([1]; first compound 100 µM) | relative viability ([2]; first compound 0.08 µM) | relative viability ([2]; first compound 0.253 µM) | relative viability ([2]; first compound 0.8 µM) | relative viability ([2]; first compound 2.53 µM) | relative viability ([3]; first compound 0.08 µM) | relative viability ([3]; first compound 0.253 µM) | relative viability ([3]; first compound 0.8 µM) | relative viability ([3]; first compound 2.53 µM) | relative viability (Bicalutamide + AZD7762; first compound 0.08 µM) | relative viability (Bicalutamide + AZD7762; first compound 0.253 µM) | relative viability (Bicalutamide + AZD7762; first compound 0.8 µM) | relative viability (Bicalutamide + AZD7762; first compound 2.53 µM) | relative viability ([1]; first compound 10 µM)
1 | ABC-1 | 0.915 | 1.04 | 1.04 | 0.878 | 0.698 | 0.474 | 0.808 | 0.601 | 0.311 | 0.232 | 0.328 | 0.319 | 0.828 | 0.572 | 1.02 | 0.772 | –
2 | NCI-H2170 | 0.833 | 0.831 | 0.914 | 0.864 | 0.378 | 0.34 | 0.438 | 0.397 | – | – | – | – | 0.805 | 0.817 | 1.26 | 0.902 | 0.764
3 | NCI-H1299 | 1.01 | 1.04 | 1.04 | 1.06 | – | – | – | – | 0.974 | 1.05 | 0.969 | 1.04 | – | – | – | – | 1.09
4 | EBC-1 | 0.888 | 0.82 | 0.79 | 0.747 | – | – | – | – | 0.584 | 0.537 | 0.592 | 0.477 | – | – | – | – | 0.802
5 | NCI-H2405 | 0.773 | 0.779 | 0.583 | 0.737 | 0.555 | 0.506 | 0.581 | 0.486 | 1.02 | 1.01 | 1.05 | 0.986 | 0.739 | 0.713 | 0.88 | 0.694 | 0.89
6 | NCI-H2009 | 1.11 | 1.15 | 1.07 | 1.01 | 0.241 | 0.246 | 0.252 | 0.255 | 1.26 | 1.03 | 1.16 | 0.88 | – | – | – | – | 1.21
7 | NCI-H2342 | – | – | – | – | 0.526 | 0.519 | 0.726 | 0.523 | – | – | – | – | 0.553 | 0.478 | 0.528 | 0.568 | –
8 | ChaGo-K-1 | – | – | – | – | 0.933 | 0.849 | 1.04 | 0.961 | 0.973 | 1.05 | 1.17 | 0.864 | 0.883 | 0.792 | 0.944 | 0.858 | –
9 | NCI-H661 | 0.693 | 0.628 | 0.588 | 0.657 | 0.418 | 0.409 | 0.424 | 0.388 | 0.84 | 0.931 | 0.81 | 0.849 | – | – | – | – | 0.601
10 | COR-L23 | 0.771 | 0.849 | 0.665 | 0.405 | 0.359 | 0.293 | 0.353 | 0.269 | 1.09 | 0.862 | 1.13 | 0.926 | – | – | – | – | 0.9
11 | COR-L 105 | 0.975 | 1.34 | 1.02 | 0.768 | 0.405 | 0.407 | 0.379 | 0.379 | 0.761 | 0.87 | 0.98 | 0.501 | – | – | – | – | 1.23
12 | LK-2 | 0.565 | 0.991 | 1.16 | 1.22 | 0.665 | 0.511 | 0.783 | 0.63 | – | – | – | – | 0.432 | 0.254 | 0.442 | 0.495 | 1.14
13 | NCI-H1944 | 0.8 | 0.85 | 0.821 | 0.858 | 0.335 | 0.299 | 0.354 | 0.323 | – | – | – | – | 0.496 | 0.438 | 0.519 | 0.366 | 0.904
